Source: US11339193B2, “CDP protein secretion inhibitors” (KEZAR LIFE SCIENCES, priority 2018, dated 2022)
Numbered stars: 1 amine (or outer) side, 2 acyl side, 3 side chain; on linkers, the order of the positions; unused ones are H or OH. Square brackets hold non-standard residues; d marks the D form. Peptide text beside a SMILES is read from it. NMeTrp(1-(4-Br-benzyl)) = CN[C@@H](Cc1cn(Cc2ccc(Br)cc2)c2ccccc12)C(=O)O; X17 = CN([C@@H](Cc1cn(-c2ccccc2)c2ccccc12)C(=O)[*:2])[*:1]; Butanoyl(2R-oxy,4-CN) = N#CCC[C@@H](O)C(=O)O; Nva(5,5,5-F3) = N[C@@H](CCC(F)(F)F)C(=O)O; Abu(4,4,4-F3) = N[C@@H](CC(F)(F)F)C(=O)O; NMeBta = CN[C@@H](Cc1csc2ccccc12)C(=O)O; NMeL = CN[C@@H](CC(C)C)C(=O)O; NMeA = CN[C@@H](C)C(=O)O

How the values were obtained:
Format in all cases: cell-based
[1] = tested on: PD1-ss+10aa/Gaussia Luciferase; experiment: Dox induced PD1-ss-Gluc assay; conditions: Flp-In 293 T-REx cells, doxycycline, 24 hours; read-out: PD1ss Gluc IC50
Method in brief: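 Stable Flp-In 293 T-REx line expressing doxycycline-inducible Gaussia luciferase fused to the PD1 signal sequence plus 10 amino acids. Cells plated the day before, then exposed to compound dilutions in DMSO/media containing doxycycline at 37 °C, 5% CO2.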

[2] = tested on: TNFα-FL/Gaussia Luciferase; experiment: Dox induced TNFα-FL-Gluc assay; conditions: Flp-In 293 T-REx cells, doxycycline, 24 hours; read-out: TNFa FL Gluc IC50
Method in brief: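 Stable Flp-In 293 T-REx line expressing full-length TNFα (aa 1-233) fused at its C-terminus to Gaussia luciferase under doxycycline-inducible control. Cells plated the day before, then given compound dilutions in DMSO/media containing doxycycline and incubated at 37 °C, 5% CO2.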

[3] = tested on: HER3ss-Gluc; experiment: HER3ss assay; conditions: HEK-293T T-rex cells, transient transfection, doxycycline, 24 h; read-out: HER3 ss IC50
Method in brief: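 HEK-293T T-REx cells were transiently transfected with HER3 signal sequence (plus four mature-domain residues) fused upstream of mature Gaussia luciferase. Cells were induced with doxycycline (1 μg/ml) and exposed to increasing compound concentrations for 24 h, then secreted luciferase in the conditioned medium was read by luminescence.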

[4] = tested on: BT474 breast tumor cell line; experiment: BT474 assay (Alamar blue); conditions: Homo sapiens, BT-474, 72 h
Experimental: (§1) BT474 is a human breast tumor cell line. JJN3 is a human plasma cell leukemia cell line. […] Cells were seeded at 100 000 cells/mL. Aliquots of 5000 cells (50 μL) were added to each well in black, clear bottom 96-well plates. Compounds or control (50 uL of 1% DMSO in cell culture medium) were added to the cells to the indicated final concentrations and cells were incubated for 72 h (unless otherwise specified). After incubation was complete, Alamar blue (10 uL of a 1 mg/mL solution) was added to each well and plates were incubated for 5 h. Fluorescence was then measured (excitation 545 nm, emission 590 nm) and is reported as […] normalized to DMSO control.

[5] = tested on: JJN3 plasma cell leukemia cell line; experiment: JJN-3 assay (Alamar blue); conditions: Homo sapiens, 72 h
Experimental: as §1

[6] = tested on: NCI-H929 multiple myeloma cell line; experiment: H929 assay (cell viability, Celltiter-Glo); conditions: Homo sapiens, NCI-H929; 48 hours, cell viability; read-out: H929 EC50
Method in brief: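 Cells plated in RPMI 1640 with 10% FBS and 2 mM glutamine, treated with compound dilutions in DMSO/media. Incubation 48 h at 37° C, 5% CO2. Viability from luciferase luminescence signal.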

[7] = tested on: Prl-ss+10aa/Gaussia Luciferase; experiment: Prl-ss-Gluc assay (constitutively active or 24 hr Dox inducible); conditions: Flp-In 293 T-REx cells, 24 hours; read-out: Prl IC50
Method in brief: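 Stable Flp-In 293 T-REx lines express Prl signal sequence+10aa fused to Gaussia luciferase, either constitutively (pcDNA5/FRT) or under the T-REx promoter (pcDNA5/FRT/TO). Cells plated the day before; compounds in DMSO/media (with doxycycline for the inducible line, 24 h) incubated at 37 °C, 5% CO2.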

[8] = tested on: U266B1 multiple myeloma cell line; experiment: U266 assay (cell viability, Celltiter-Glo); conditions: Homo sapiens, U-266; 48 hours, cell viability
Experimental: Cells were plated in 384-well tissue culture plates and treated with compound dilutions in DMSO/media. Plates were incubated at 37° C., 5% CO2 for 48 hours. After 48 hours, Celltiter-Glo@ (Promega) was added to each well and luciferase signal was quantified using Tecan Infinite M1000 Pro for cell viability determination.

[9] = tested on: VCAMss+10aa/Gaussia Luciferase; experiment: VCAM-ss-Gluc assay (constitutively active or Dox induced); conditions: Flp-In 293 T-REx cells, 24 hours
Experimental: Assays Constitutively Active VCAM-ss-Gluc Assay
Transfected cells were selected for resistance to the selectable markers Hygromycin and Blasticidin to create a stable cell line that constitutively expressed the VCAMss+ 10aa/Gaussia Luciferase fusion protein. The day before assay, cells were trypsinized and plated in 384-well tissue culture plates. The next day, culture media was removed from the wells and replaced with fresh media. Compound dilutions in DMSO/media were added to the wells and incubated at 37° C., 5% CO2.
Dox Induced VCAM-ss-Gluc Assay
Transfected cells were selected for resistance to the selectable markers Hygromycin and Blasticidin to create a stable cell line that contained the VCAMss+10aa/Gaussia Luciferase cDNA insert whose expression was regulated under the T-REx™ system. The day before assay, cells were trypsinized and plated in 384-well tissue culture plates. The next day, compound dilutions in DMSO/media containing doxycycline were added to the wells and incubated at 37° C., 5% CO2.

## COc1ccc(Cn2cc(C[C@H]3C(=O)N[C@@H](CC(C)C)C(=O)N(C)[C@@H](C)C(=O)O[C@H](CCC#N)C(=O)N[C@@H](CC(C)C)C(=O)N(C)[C@@H](CC(C)C)C(=O)N[C@@H](CC(C)C)C(=O)N3C)c3ccccc32)cc1 [C-31] (HELM PEPTIDE1{L.[meA].[N#CCC[C@@H](O[*:1])C(=O)[*:2]].L.[meL].L.[COc1ccc(Cn2cc(C[C@@H](C(=O)[*:2])N(C)[*:1])c3ccccc32)cc1]}$PEPTIDE1,PEPTIDE1,1:R1-7:R2$$$V2.0)
[1]
  IC50: 380 nM
[2]
  IC50: 4060 nM
[3]
  IC50: 264 nM
[4]
  EC50: 5890 nM
[5]
  EC50: 2060 nM

## CC(C)C[C@@H]1NC(=O)[C@H](Cc2ccccc2)N(C)C(=O)[C@H](CC(C)C)NC(=O)[C@H](CC(C)C)N(C)C(=O)[C@H](CC(C)C)NC(=O)[C@@H](CCC#N)OC(=O)[C@H](C)N(C)C1=O [C-37] (HELM PEPTIDE1{L.[meA].[N#CCC[C@@H](O[*:1])C(=O)[*:2]].L.[meL].L.[meF]}$PEPTIDE1,PEPTIDE1,1:R1-7:R2$$$V2.0)
[1]
  IC50: 582 nM
[2]
  IC50: 1020 nM
[6]
  EC50: 6290 nM
[7]
  IC50: 18500 nM
[3]
  IC50: 267 nM
[4]
  EC50: 6360 nM
[5]
  EC50: 8810 nM
[8]
  EC50: 20900 nM

## CCCC[C@@H]1NC(=O)[C@@H](CCC#N)OC(=O)[C@H](C)N(C)C(=O)[C@H](CC(C)C)NC(=O)[C@H](Cc2cn(Cc3ccc(C(F)(F)F)cc3)c3ccccc23)N(C)C(=O)[C@H](CC(C)C)NC(=O)[C@H](CC(C)C)N(C)C1=O [C-46] (HELM PEPTIDE1{L.[meA].[N#CCC[C@@H](O[*:1])C(=O)[*:2]].[Nle].[meL].L.[CN([C@@H](Cc1cn(Cc2ccc(C(F)(F)F)cc2)c2ccccc12)C(=O)[*:2])[*:1]]}$PEPTIDE1,PEPTIDE1,1:R1-7:R2$$$V2.0)
[1]
  IC50: 35 nM
[2]
  IC50: 296 nM
[6]
  EC50: 3070 nM
[7]
  IC50: 15000 nM
[9]
  IC50: 141 nM
[4]
  EC50: 3120 nM
[5]
  EC50: 640 nM

## CC(C)C[C@@H]1NC(=O)[C@H](CC(C)C)N(C)C(=O)[C@H](CC(F)(F)F)NC(=O)[C@@H](CCC#N)OC(=O)[C@H](C)N(C)C(=O)[C@H](CCC(F)(F)F)NC(=O)[C@H](Cc2cn(Cc3ccc(Br)cc3)c3ccccc23)N(C)C1=O [C-48] (cyclo(L[NMeTrp(1-(4-Br-benzyl))][Nva(5,5,5-F3)][NMeA][Butanoyl(2R-oxy,4-CN)][Abu(4,4,4-F3)][NMeL]))
[1]
  IC50: 27 nM
[2]
  IC50: 133 nM
[6]
  EC50: 1630 nM
[7]
  IC50: 1340 nM
[9]
  IC50: 36 nM
[4]
  EC50: 1240 nM
[5]
  EC50: 284 nM

## CC(C)C[C@@H]1NC(=O)[C@H](CC(C)C)N(C)C(=O)[C@H](CC(F)(F)F)NC(=O)[C@@H](CCC#N)OC(=O)[C@H](C)N(C)C(=O)[C@H](CCC(F)(F)F)NC(=O)[C@H](Cc2csc3ccccc23)N(C)C1=O [C-49] (cyclo(L[NMeBta][Nva(5,5,5-F3)][NMeA][Butanoyl(2R-oxy,4-CN)][Abu(4,4,4-F3)][NMeL]))
[1]
  IC50: 168 nM
[2]
  IC50: 550 nM
[6]
  EC50: 3370 nM
[9]
  IC50: 22 nM
[3]
  IC50: 17 nM
[4]
  EC50: 1800 nM
[5]
  EC50: 623 nM

## CC(C)C[C@@H]1NC(=O)[C@@H](CCC#N)OC(=O)[C@H](C)N(C)C(=O)[C@H](CCC(F)(F)F)NC(=O)[C@H](Cc2csc3ccccc23)N(C)C(=O)[C@H](CC(C)C)NC(=O)[C@H](CC(C)C)N(C)C1=O [C-50] (cyclo(L[NMeBta][Nva(5,5,5-F3)][NMeA][Butanoyl(2R-oxy,4-CN)]L[NMeL]))
[1]
  IC50: 201 nM
[2]
  IC50: 644 nM
[6]
  EC50: 4540 nM
[7]
  IC50: 9060 nM
[9]
  IC50: 30 nM
[4]
  EC50: 2450 nM
[5]
  EC50: 1080 nM

## CC(C)C[C@@H]1NC(=O)[C@H](Cc2cn(-c3ccccc3)c3ccccc23)N(C)C(=O)[C@H](CC(C)C)NC(=O)[C@H](CC(C)C)N(C)C(=O)[C@H](CC(F)(F)F)NC(=O)[C@@H](CCC#N)OC(=O)[C@H](C)N(C)C1=O [C-51] (cyclo(L[NMeA][Butanoyl(2R-oxy,4-CN)][Abu(4,4,4-F3)][NMeL]L[X17]))
[1]
  IC50: 133 nM
[2]
  IC50: 836 nM
[6]
  EC50: 6200 nM
[9]
  IC50: 72 nM
[4]
  EC50: 3440 nM
[5]
  EC50: 1070 nM

## CC(C)C[C@@H]1NC(=O)[C@H](Cc2cn(Cc3ccc(Br)cc3)c3ccccc23)N(C)C(=O)[C@H](CC(F)(F)F)NC(=O)[C@H](CC(C)C)N(C)C(=O)[C@H](CC(F)(F)F)NC(=O)[C@@H](CCC#N)OC(=O)[C@H](C)N(C)C1=O [C-58, 3-((2R,5S,8S,11S,14S,17S,20S)-14-((1-(4-bromobenzyl)-1H-indol-3-yl)methyl)-8,17-diisobutyl-7,13,19,20-tetramethyl-3,6,9,12,15,18,21-heptaoxo-5,11-bis(2,2,2-trifluoroethyl)-1-oxa-4,7,10,13,16,19-hexaazacyclohenicosan-2-yl)propanenitrile] (cyclo(L[NMeA][Butanoyl(2R-oxy,4-CN)][Abu(4,4,4-F3)][NMeL][Abu(4,4,4-F3)][NMeTrp(1-(4-Br-benzyl))]))
[1]
  IC50: 25 nM
[2]
  IC50: 90 nM
[6]
  EC50: 629 nM
[7]
  IC50: 619 nM
[4]
  EC50: 444 nM
[5]
  EC50: 111 nM

## CC(C)C[C@@H]1NC(=O)[C@H](Cc2cn(Cc3cccc(OC(F)(F)F)c3)c3ccccc23)N(C)C(=O)[C@H](CC(C)C)NC(=O)[C@H](CC(C)C)N(C)C(=O)[C@H](CC(C)C)NC(=O)[C@@H](CCC#N)OC(=O)[C@H](C)N(C)C1=O [C-75] (HELM PEPTIDE1{L.[meA].[N#CCC[C@@H](O[*:1])C(=O)[*:2]].L.[meL].L.[CN([C@@H](Cc1cn(Cc2cccc(OC(F)(F)F)c2)c2ccccc12)C(=O)[*:2])[*:1]]}$PEPTIDE1,PEPTIDE1,1:R1-7:R2$$$V2.0)
[3]
  IC50: 857 nM
[4]
  EC50: 8220 nM
[5]
  EC50: 920 nM

## CC(C)C[C@@H]1NC(=O)[C@H](Cc2cn(Cc3cccc(OC(F)F)c3)c3ccccc23)N(C)C(=O)[C@H](CC(C)C)NC(=O)[C@H](CC(C)C)N(C)C(=O)[C@H](CC(C)C)NC(=O)[C@@H](CCC#N)OC(=O)[C@H](C)N(C)C1=O [C-76] (HELM PEPTIDE1{L.[meA].[N#CCC[C@@H](O[*:1])C(=O)[*:2]].L.[meL].L.[CN([C@@H](Cc1cn(Cc2cccc(OC(F)F)c2)c2ccccc12)C(=O)[*:2])[*:1]]}$PEPTIDE1,PEPTIDE1,1:R1-7:R2$$$V2.0)
[3]
  IC50: 245 nM
[4]
  EC50: 5840 nM
[5]
  EC50: 669 nM

## CC(C)C[C@@H]1NC(=O)[C@H](Cc2cn(Cc3cccc(Br)c3)c3ccccc23)N(C)C(=O)[C@H](CC(C)C)NC(=O)[C@H](CC(C)C)N(C)C(=O)[C@H](CC(C)C)NC(=O)[C@@H](CCC#N)OC(=O)[C@H](C)N(C)C1=O [C-77] (HELM PEPTIDE1{L.[meA].[N#CCC[C@@H](O[*:1])C(=O)[*:2]].L.[meL].L.[CN([C@@H](Cc1cn(Cc2cccc(Br)c2)c2ccccc12)C(=O)[*:2])[*:1]]}$PEPTIDE1,PEPTIDE1,1:R1-7:R2$$$V2.0)
[3]
  IC50: 787 nM
[4]
  EC50: 15100 nM
[5]
  EC50: 2500 nM
